# Entries after “also recorded” stand apart in the source; their conditions may differ. Like-named read-outs stand apart in the source and are kept apart here.
# Experiments:
# [1] = system: SH-SY5Y neuroblastoma cells; conditions: 50 μM, ref [28],[29]; cited from earlier work
# [2] = system: H2O2-damaged SH-SY5Y cells; test: In vitro neuroprotection against H2O2 in SH-SY5Y (MTT); conditions: Homo sapiens, SH-SY5Y, read-out: Cell viability (% of control)
# Protocol: For the neuroprotection assay, the cells previously cultured (Section 3.4.1) were seeded in 96-well plates at a density of 5 × 10^4 cells/well in a volume of 200 µL. The plates were incubated at 37 °C containing 5% CO2 for 24 h. After 24 h, the medium was replaced with the test solutions. […] Finally, the test solutions were removed, the cells were washed with PBS pH 7.4, and the H2O2 solution was added and maintained in contact with the cells for 24 h. After 24 h exposure, the neuroprotective capacity was assessed through cell viability using the MTT assay protocol previously described in Section 3.4.3 [52, 53].
# [3] = target: electric eel AChE [EeAChE] (Electrophorus electricus, UniProt O42275); test: biochemical; format: biochemical; conditions: for IC50: Electric eel AChE, Ellman method, read-out: IC50(nM) ± SD AChE (EeAChE); for SI: Selectivity Index = EqBChE IC50/EeAChE IC50
# Chain of electric eel AChE [EeAChE] (O42275 24-633): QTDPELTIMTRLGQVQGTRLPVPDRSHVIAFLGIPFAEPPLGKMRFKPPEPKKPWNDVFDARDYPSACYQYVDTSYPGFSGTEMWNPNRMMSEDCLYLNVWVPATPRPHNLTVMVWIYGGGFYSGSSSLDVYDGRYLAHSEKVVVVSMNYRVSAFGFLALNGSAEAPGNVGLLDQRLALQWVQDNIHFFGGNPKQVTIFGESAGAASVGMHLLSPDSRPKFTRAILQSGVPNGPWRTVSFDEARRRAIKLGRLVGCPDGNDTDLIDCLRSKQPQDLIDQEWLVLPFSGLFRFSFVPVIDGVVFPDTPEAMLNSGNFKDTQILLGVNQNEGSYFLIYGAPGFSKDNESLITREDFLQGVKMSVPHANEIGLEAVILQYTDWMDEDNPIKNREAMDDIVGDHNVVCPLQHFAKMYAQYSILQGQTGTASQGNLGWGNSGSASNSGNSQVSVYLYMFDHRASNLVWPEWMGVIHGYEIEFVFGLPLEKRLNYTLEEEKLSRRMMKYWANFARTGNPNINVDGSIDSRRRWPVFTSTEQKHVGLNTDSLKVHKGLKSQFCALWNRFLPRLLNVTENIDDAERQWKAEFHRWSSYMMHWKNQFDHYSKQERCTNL
# Protocol: (§1) The anticholinesterase activity was determined using Ellman’s method, adapted as follows. […] Subsequently, 60 μL of 5,5′-dithiobis(2-nitrobenzoic acid) (DTNB, 1.1 mM) and 30 μL of enzyme solution (electric eel AChE [EeAChE], human AChE [hAChE], or equine serum BChE [EqBChE], 0.20 U/mL) containing 1 mg/mL bovine serum albumin (BSA) were added. […] Enzyme activity was calculated as the percentage relative to untreated controls, subtracting the blank reference. IC50 values were derived via non-linear regression analysis of dose–response curves (Figure S4) using GraphPad Prism v7.0.
# [4] = target: T1, equine serum BChE [EqBChE] (Equus caballus, UniProt P81908); test: biochemical; conditions: Ellman method, read-out: IC50(nM) ± SD BChE (EqBChE)
# T1 construct: equine serum BChE [EqBChE]; from tissue; host or cells: equine serum
# T1 sequence (P81908 whole entry): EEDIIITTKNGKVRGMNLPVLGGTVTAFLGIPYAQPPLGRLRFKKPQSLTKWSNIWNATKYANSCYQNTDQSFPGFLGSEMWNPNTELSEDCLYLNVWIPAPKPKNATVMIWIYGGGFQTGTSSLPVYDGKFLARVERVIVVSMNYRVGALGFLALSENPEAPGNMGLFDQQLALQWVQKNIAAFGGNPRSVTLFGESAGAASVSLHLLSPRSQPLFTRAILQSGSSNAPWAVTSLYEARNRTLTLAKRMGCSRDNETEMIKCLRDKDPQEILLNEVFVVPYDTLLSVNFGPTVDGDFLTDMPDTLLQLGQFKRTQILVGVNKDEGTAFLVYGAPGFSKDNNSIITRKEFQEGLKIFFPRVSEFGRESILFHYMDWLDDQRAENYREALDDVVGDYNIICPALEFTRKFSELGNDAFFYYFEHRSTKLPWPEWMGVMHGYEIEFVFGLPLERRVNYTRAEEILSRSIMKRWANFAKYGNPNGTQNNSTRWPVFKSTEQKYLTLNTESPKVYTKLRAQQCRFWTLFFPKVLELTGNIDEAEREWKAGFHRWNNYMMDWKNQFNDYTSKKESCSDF
# Protocol: as §1
# [5] = target: human AChE [hAChE] (Homo sapiens, UniProt P22303); test: biochemical
# Chain of human AChE [hAChE] (P22303 32-614): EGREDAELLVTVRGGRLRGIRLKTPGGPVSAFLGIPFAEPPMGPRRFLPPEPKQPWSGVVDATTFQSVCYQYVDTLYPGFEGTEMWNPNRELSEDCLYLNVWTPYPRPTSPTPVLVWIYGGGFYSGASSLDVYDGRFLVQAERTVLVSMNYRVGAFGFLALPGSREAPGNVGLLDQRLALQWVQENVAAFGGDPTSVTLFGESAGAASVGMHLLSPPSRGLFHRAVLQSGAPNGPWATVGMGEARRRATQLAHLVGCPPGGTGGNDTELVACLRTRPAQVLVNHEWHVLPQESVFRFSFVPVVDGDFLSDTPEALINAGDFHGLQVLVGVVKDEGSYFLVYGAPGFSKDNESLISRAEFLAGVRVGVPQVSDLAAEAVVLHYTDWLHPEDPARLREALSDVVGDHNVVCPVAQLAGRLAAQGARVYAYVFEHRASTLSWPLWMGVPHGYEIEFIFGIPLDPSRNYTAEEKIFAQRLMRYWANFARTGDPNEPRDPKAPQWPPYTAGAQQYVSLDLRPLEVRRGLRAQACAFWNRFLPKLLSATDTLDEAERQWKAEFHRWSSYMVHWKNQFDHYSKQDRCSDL
# Protocol: as §1
# [6] = Cytotoxicity (neurotoxicity) MTT assay in SH-SY5Y; format: cell-based; conditions: human, SH-SY5Y neuroblastoma cells
# Protocol: (§2) The immortalized human neuroblastoma cell line (SH-SY5Y–ATCC: CRL-2226; BCRJ:0223) was used to evaluate cytotoxicity. The cell line was cultured in Dulbecco’s Modified Eagle’s Medium and F12 in a 1:1 ratio (DMEM:F12; Sigma-Aldrich code 0697, Brazil) supplemented with 10% fetal bovine serum (FBS; Sigma-Aldrich code F2442, Brazil) and 1% streptomycin/penicillin (10,000 U/mL and 10,000 μg/mL, respectively; Nova Biotecnologia code BR30110-01, Cotia, SP, Brazil) and incubated at 37 °C with 5% CO2. The culture medium was replaced every 48 h, until the cells reached semi-confluence (≥70%). Cell passage was carried out with the aid of trypsin-EDTA/0.25% solution (Nova Biotecnologia, Brazil) and divided between 5 or 8 mL culture volumes depending on the respective bottles (25 or 75 cm^2) used.
# (§3) The in vitro cytotoxicity assay evaluated cell viability using the [3-(4,5-dimethylthiazol-2yl)-2,5-diphenyl tetrazolium] bromide (MTT) reduction assay. Cells were seeded at an initial density of 5.0 × 10^4 cells/well in 96-well plates in a volume of 200 µL. […] In the next step, the culture medium was replaced by the sample solution previously described (Section 3.4.2). After 24 h exposure, the medium was replaced with 100 μL of MTT in phosphate-buffer saline (PBS), pH 7.4, at a concentration of 0.5 mg.mL^−1/well and the plates were incubated for an additional 3 h. Then, the MTT solution was removed, and 100 μL of DMSO was added to solubilize the formazan crystals. The cell viability was measured by absorbance at 562 nm using a Microplate Absorbance Reader (Kasuaki, Brazil). All concentrations tested were evaluated in nine replicates (n = 9). The variation in results was observed using ANOVA followed by Tukey’s test for multiple comparisons through GraphPad Prism v5^TM with a significance level of p < 0.05.
# [7] = system: SH-SY5Y neuroblastoma cells; test: Cytotoxicity (neurotoxicity) MTT assay in SH-SY5Y; format: cell-based; conditions: up to 50 µM
# Protocol: as §2, §3
# [8] = target: electric eel acetylcholinesterase (EeAChE) (Electrophorus electricus, UniProt O42275); test: Enzymatic kinetic study, EeAChE; format: biochemical; conditions: AChE
# Chain of electric eel acetylcholinesterase (EeAChE) (O42275 24-633): as the sequence (O42275 24-633) above
# Protocol: (§4) The enzymatic kinetics of cholinesterase inhibition were determined according to an adapted Ellman’s method. All of the solutions were prepared at 20 °C in 0.02 M Tris-HCl buffer (pH 7.5; ionic strength ~0.02 M), stock solutions of test compounds were prepared in DMSO:EtOH (7:3) mixture (20 mM), and the experiment was conducted in triplicate. To a flat-bottom 96-well transparent plate (path length of 0.6 cm) were added 150 μL of treatment solutions with inhibitors 1a, 1h, and 1j at two different concentrations (Table S1) distributed in eight sets of triplicate each. Eight sets of untreated triplicates were used as a negative control. Following, there were added 60 μL of 5,5′-Dithiobis(2-nitrobenzoic acid) (DTNB, Ellman’s reagent) at 1.1 mM and 30 μL of electric eel acetylcholinesterase (EeAChE) or equine serum butyrylcholinesterase (EqBuChE) at 0.20 U/mL in the presence of 1 mg/mL bovine serum albumin (BSA). […] Ki, Ki’ (competitive and noncompetitive inhibition constants, respectively), Km (Michaelis-Menten constant), and Vmax values were calculated with Graphpad Prism v7.0 using the non-linear regression models for enzyme kinetics inhibition and enzyme kinetics–substrate vs. velocity.
# [9] = target: T2, equine serum butyrylcholinesterase (EqBuChE) (Equus caballus, UniProt P81908); test: Enzymatic kinetic study, EqBChE; format: biochemical; conditions: BChE
# T2 construct: equine serum BChE [EqBChE]; from tissue; host or cells: equine serum
# T2 sequence (P81908 whole entry): as the sequence (P81908 whole entry) above
# Protocol: as §4
# [10] = target: T1, equine serum BChE [EqBChE]; parameters: method as in PMID 30727776; conditions: Figure 1; ref [22]; read-out: EqBChE (IC50 of prototype); cited from earlier work
# [11] = target: T3, hMAO-B (Homo sapiens, UniProt P27338); test: biochemical; format: biochemical; conditions: test concentration of 1 µM; read-out: Percentage of MAO-B inhibition ± SEM
# T3 construct: purchased Sigma-Aldrich, Gillingham, UK
# T3 sequence (P27338 1-520): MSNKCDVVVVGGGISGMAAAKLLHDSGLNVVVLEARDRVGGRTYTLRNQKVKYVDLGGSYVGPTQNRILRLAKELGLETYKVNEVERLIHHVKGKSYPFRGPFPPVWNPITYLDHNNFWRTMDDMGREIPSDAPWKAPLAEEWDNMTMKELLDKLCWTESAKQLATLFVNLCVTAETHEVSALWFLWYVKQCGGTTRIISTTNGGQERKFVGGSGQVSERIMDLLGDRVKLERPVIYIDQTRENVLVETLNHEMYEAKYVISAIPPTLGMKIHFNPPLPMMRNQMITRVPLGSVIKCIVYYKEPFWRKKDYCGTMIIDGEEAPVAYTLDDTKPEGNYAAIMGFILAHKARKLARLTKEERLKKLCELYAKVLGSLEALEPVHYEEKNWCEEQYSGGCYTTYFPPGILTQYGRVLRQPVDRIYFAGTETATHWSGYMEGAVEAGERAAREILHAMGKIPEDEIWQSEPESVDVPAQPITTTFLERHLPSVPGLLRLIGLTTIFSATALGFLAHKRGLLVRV
# Protocol: (§5) The activity of human recombinant membrane-bound monoamine oxidase isoforms A and B (MAO-A/B) (Sigma-Aldrich, Gillingham, UK) in 50 mM potassium phosphate buffer (pH 7.5) was determined by measuring hydrogen peroxide production coupled to the fluorescent dye Amplex Red (Sigma-Aldrich, UK) at a final concentration of 50 μM, in the presence of horseradish peroxidase (HRP, 2.5 U/mL). This coupling reaction generates the fluorescent product resorufin, which was quantified at 30 °C using a fluorescence plate reader.
# (§6) Reactions were initiated by adding the substrate and dye after a 30 min preincubation of the inhibitor with the enzyme. Data were analyzed using a three-parameter equation in GraphPad Prism 7.0 (San Diego, USA). Each reported value represents the mean of at least two independent determinations.
# [12] = target: T4, hMAO-A (Homo sapiens, UniProt P21397); test: MAO-A inhibition, fluorometric Amplex Red assay; format: biochemical; conditions: test concentration of 1 µM; read-out: Percentage of MAO-A inhibition ± SEM
# T4 construct: purchased Sigma-Aldrich, Gillingham, UK
# T4 sequence (P21397 1-527): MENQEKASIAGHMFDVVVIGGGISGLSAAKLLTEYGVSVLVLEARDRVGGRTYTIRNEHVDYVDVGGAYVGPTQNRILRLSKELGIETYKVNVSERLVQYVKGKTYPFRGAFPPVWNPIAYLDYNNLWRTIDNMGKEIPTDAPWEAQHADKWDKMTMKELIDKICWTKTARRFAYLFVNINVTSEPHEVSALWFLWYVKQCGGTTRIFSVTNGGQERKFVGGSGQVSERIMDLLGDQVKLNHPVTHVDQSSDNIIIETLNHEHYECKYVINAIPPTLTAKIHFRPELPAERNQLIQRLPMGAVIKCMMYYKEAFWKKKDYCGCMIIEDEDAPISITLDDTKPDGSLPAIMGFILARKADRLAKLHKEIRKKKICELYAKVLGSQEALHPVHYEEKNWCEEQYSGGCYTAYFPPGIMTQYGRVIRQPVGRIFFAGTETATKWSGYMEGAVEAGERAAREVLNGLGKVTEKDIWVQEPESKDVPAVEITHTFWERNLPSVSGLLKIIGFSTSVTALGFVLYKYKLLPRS
# Protocol: as §5, with “reader. […].” for “reader.”
# as §6
# [13] = target: T5, hH3R (Homo sapiens, UniProt Q9Y5N1); test: H3R radioligand displacement assay ([3H]-N-α-methylhistamine); format: binding; conditions: 95% confidence interval in brackets; HEK-293 membranes
# T5 construct: expressed in transfected cells; host or cells: HEK-293
# T5 sequence (Q9Y5N1 whole entry): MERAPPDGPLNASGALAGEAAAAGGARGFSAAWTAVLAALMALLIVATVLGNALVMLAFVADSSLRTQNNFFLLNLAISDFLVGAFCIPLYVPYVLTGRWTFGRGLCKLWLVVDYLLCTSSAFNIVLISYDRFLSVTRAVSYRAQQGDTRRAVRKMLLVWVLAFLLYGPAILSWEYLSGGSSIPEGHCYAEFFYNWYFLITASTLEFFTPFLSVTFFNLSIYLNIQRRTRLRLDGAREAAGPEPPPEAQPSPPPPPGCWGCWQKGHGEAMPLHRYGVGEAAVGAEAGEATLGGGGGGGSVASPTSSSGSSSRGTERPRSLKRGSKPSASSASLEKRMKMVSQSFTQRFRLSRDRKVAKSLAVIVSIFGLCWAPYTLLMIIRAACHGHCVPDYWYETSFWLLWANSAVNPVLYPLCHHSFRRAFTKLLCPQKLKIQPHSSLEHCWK
# Protocol: HEK-293 cells (human embryonic kidney cells) stably expressing hH3R were washed and harvested in PBS buffer (phosphate-buffered saline). […] The cell membrane homogenate was centrifuged (20,000× g, 20 min, 4 °C), and the resulting pellet was resuspended in binding buffer and stored at −80 °C until use.
# Prior to experiments, the cell membranes were thawed, homogenized by sonication at 4 °C, and kept in ice-cold binding buffer. Crude membrane extracts (20 μg/well in a final volume of 0.2 mL binding buffer) were incubated with [^3H]-N-α-methylhistamine (2 nM; 78.3 Ci/mmol) and varying concentrations of test compounds. Assays were performed in duplicate, with compound concentrations ranging from 0.01 nM to 100 μM. Incubations proceeded for 90 min at room temperature under continuous agitation.
# Bound radioligand was separated from free radioligand by filtration through GF/B filters pretreated with 0.3% (w/v) polyethyleneimine, using a cell harvester. Radioactivity was quantified by liquid scintillation counting. Data were analyzed using GraphPad Prism v8 (San Diego, CA, USA) software, employing non-linear regression analysis.
# [14] = competitive inhibition constant (Table S2), read-out: Ki (nM) ± SD
# [15] = global non-linear regression, mixed inhibition (Table S3)
smiles,measurement,setting,value
Nc1c2c(nc3ccccc13)CCCC2 [tacrine],cell viability,[1],97%
"COc1cccc(Cn2cc(-c3cc4ccc(OCCN5CCCCC5)cc4oc3=O)nn2)c1 [Compound 1j, 3-(1-(3-Methoxybenzyl)-1H-1,2,3-triazol-4-yl)-7-(2-(piperidin-1-yl)ethoxy)-2H-chromen-2-one]",viability at 12.5 µM,[2],68%
same,IC50,[3],4.16 ± 0.11 nM
same,SI,[3],686
same,IC50,[4],2880 ± 120 nM
same,IC50,"[5]; Human AChE, Ellman method, read-out: IC50(nM) ± SD AChE (hAChE) (converted)",12.5 nM
same,SI,[5]; SI = EqBChE IC50/hAChE,222
same,"viability at 24 h, 12.5 µM","[6]; 12.5 μM, 24 h, MTT, read-out: Cell viability (% of control)",71%
same,"viability at 24 h, 25 µM","[6]; 25.0 μM, 24 h, MTT, read-out: Cell viability (% of control)",70%
same,"viability at 24 h, 50 µM","[6]; 50.0 μM, 24 h, MTT, read-out: Cell viability (% of control)",63%
same,viability at 24 h,"[6]; up to 25 μM, read-out: cell viability",≥ 70%
same,neurotoxicity,[7],non-neurotoxic; also recorded: neurotoxicity in high concentrations
same,Ki,[8]; [14],0.508 ± 0.0001 nM
same,Ki,"[8]; corrected for tight-binding using the Morrison equation (Table S3), read-out: Ki ± SE (95% CI)",0.637 nM
same,α ± SE (95% CI),[8]; [15],4.248 ± 1.415
same,Vmax ± SD,[8]; inhibitor 0.003 μM,5.21 ± 0.0656 1 × 10^3 nM/min
same,Vmax ± SD,[8]; inhibitor 0.005 μM,3.90 ± 0.1517 1 × 10^3 nM/min
same,Ki,[9]; [14],615 ± 0.58 nM
same,Ki,"[9]; free enzyme (Table S3), read-out: Ki ± SE (95% CI)",944 ± 200 nM
same,α ± SE (95% CI),[9]; [15],3.349 ± 1.984
same,Vmax ± SD,[9]; inhibitor 1.9 μM,5.97 ± 0.1562 1 × 10^3 nM/min
same,Vmax ± SD,[9]; inhibitor 3.9 μM,4.12 ± 0.2257 1 × 10^3 nM/min
CN(C)c1ccc(-c2cc3ccc(OCCN4CCCCC4)cc3oc2=O)cc1 [Compound 2],IC50,[10],6.37 µM
"O=c1oc2cc(OCCCN3CCCCC3)ccc2cc1-c1cn(-c2ccccc2)nn1 [Compound 1b, 3-(1-Phenyl-1H-1,2,3-triazol-4-yl)-7-(3-(piperidin-1-yl)propoxy)-2H-chromen-2-one]",inhibition at 1 µM,[11],11.4 ± 1.9%
same,IC50,[3],1330 ± 45 nM
same,SI,[3],3
same,inhibition at 1 µM,[12],6.4 ± 0.5%
same,Ki,[13],32 nM
same,IC50,[4],3970 ± 94 nM

# From article PMC12472947 (Pharmaceuticals, 2025)
